Laboratory results from patent US8957058B2, “Insecticidal pyrrolidin-yl-aryl-carboxamides” (Syngenta Participations AG, priority 2010, dated 2015).

Columns and labels:
Format in all cases: in vivo
[1] = tested on: Spodoptera littoralis (Egyptian Cotton Leaf Worm); assay: Spodoptera littoralis (systemic) test via salad grown on treated agar; conditions: 5 days after infestation
From the text: Spodoptera littoralis (Systemic) (Egyptian Cotton Leaf Worm) Test compounds were applied by pipette into 24 well plates and mixed with agar. Salad seeds were placed on the agar and the multi well plate is closed by another plate which contains also agar. After 7 days the roots have absorbed the compound and the salad has grown into the lid plate. The salad leafs were now cut off into the lid plate. Spodoptera eggs were pipette through a plastic stencil on a humid gel blotting paper and the plate closed with it. The samples are checked for mortality, repellent effect, feeding behavior, and growth regulation 5 days after infestation.

[2] = tested on: Tetranychus urticae (Two-Spotted Spider Mite); assay: Tetranychus urticae bean leaf disc spray test; conditions: for % Control at 12.5 ppm, Tetranychus urticae / % Control at 200 ppm, Tetranychus urticae: enantiomer comparison, checked 8 days later; for Control, Tetranychus urticae (Two-spotted spider mite): application rate 12 ppm
From the text: […] After drying, the leaf discs are infested with mite populations of mixed ages. 8 days later, discs are checked for egg mortality, larval mortality, and adult mortality. […] After drying, the leaf discs are infested with mite populations of mixed ages. 8 days later, discs are checked for egg mortality, larval mortality, and adult mortality.

[3] = tested on: Diabrotica balteata (Corn Root Worm); assay: Diabrotica balteata L2 larvae test on artificial diet; conditions: for % Control at 12.5 ppm, Diabrotica balteata / % Control at 200 ppm, Diabrotica balteata: enantiomer comparison, 5 days incubation; for Control, Diabrotica balteata (Corn root worm): application rate 12 ppm
Description: Diabrotica balteata (Corn Root Worm): A 24-well microtiter plate (MTP) with artificial diet was treated with test solutions at an application rate of 200 ppm (concentration in well […]) by pipetting. After drying, the MTP's were infested with L2 larvae (6-10 per well). After an incubation period of 5 days, samples were checked for larval mortality and growth regulation. Diabrotica balteata (Corn Root Worm): A 24-well microtiter plate (MTP) with artificial diet was treated with test solutions at an application rate of 12.5 ppm (concentration in well […]) by pipetting. After drying, the MTP's were infested with L2 larvae (6-10 per well). After an incubation period of 5 days, samples were checked for larval mortality and growth regulation.

[4] = tested on: Plutella xylostella (Diamond Back Moth); assay: Plutella xylostella L2 larvae test on artificial diet; conditions: enantiomer comparison, 6 days incubation
Description: […] After drying, the MTP's were infested with L2 larvae (7-12 per well). After an incubation period of 6 days, samples were checked for larval mortality and growth regulation. […] After drying, the MTPs were infested with L2 larvae (7-12 per well). After an incubation period of 6 days, samples were checked for larval mortality and growth regulation.

[5] = tested on: Heliothis virescens (Tobacco Budworm); assay: Heliothis virescens egg test on artificial diet; conditions: for % Control at 12.5 ppm, Heliothis virescens / % Control at 200 ppm, Heliothis virescens: enantiomer comparison, 4 days incubation
Description: Heliothis virescens (Tobacco Budworm): Eggs (0-24 h old) were placed in 24-well microtiter plate on artificial diet and treated with test solutions at an application rate of 200 ppm (concentration in well 18 ppm) by pipetting. After an incubation period of 4 days, samples were checked for egg mortality, larval mortality, and growth regulation. Heliothis virescens (Tobacco Budworm): Eggs (0-24 h old) were placed in 24-well microtiter plate on artificial diet and treated with test solutions at an application rate starting at 200 ppm (concentration in well 18 ppm) by pipetting. After an incubation period of 4 days, samples were checked for egg mortality, larval mortality, and growth regulation.

[6] = tested on: Thrips tabaci (Onion Thrips); assay: Thrips tabaci sunflower leaf disc spray test; conditions: enantiomer comparison, 7 days incubation
Description: Thrips tabaci (Onion Thrips): Sunflower leaf discs were placed on agar in a 24-well microtiter plate and sprayed with test solutions at an application rate of 200 ppm. After drying, the leaf discs were infested with a thrip population of mixed ages. After an incubation period of 7 days, samples were checked for mortality. Thrips tabaci (Onion Thrips): Sunflower leaf discs were placed on agar in a 24-well microtiter plate and sprayed with test solutions at an application rate of 50 ppm. After drying, the leaf discs were infested with a thrip population of mixed ages. After an incubation period of 7 days, samples were checked for mortality.

SMILES | % Control at 12.5 ppm, Spodoptera littoralis [1] [%] | % Control at 200 ppm, Spodoptera littoralis [1] [%] | % Control at 12.5 ppm, Tetranychus urticae [2] [%] | % Control at 200 ppm, Tetranychus urticae [2] [%] | % Control at 12.5 ppm, Diabrotica balteata [3] [%] | % Control at 200 ppm, Diabrotica balteata [3] [%] | % Control at 12.5 ppm, Plutella xylostella [4] [%] | % Control at 200 ppm, Plutella xylostella [4] [%] | % Control at 12.5 ppm, Heliothis virescens [5] [%] | % Control at 200 ppm, Heliothis virescens [5] [%] | % Control at 200 ppm, Thrips tabaci [6] [%] | Control, Tetranychus urticae (Two-spotted spider mite) [2] [%] | Control, Diabrotica balteata (Corn root worm) [3] [%] | Control, Heliothis virescens (Tobacco budworm) ([5]; application rate 0.8 ppm) [%] | Control, Heliothis virescens (Tobacco budworm) ([5]; application rate 3 ppm) [%]
Cc1cc(N2CCC(c3cc(Cl)cc(Cl)c3)(C(F)(F)F)C2)ccc1C(=O)NC1CS(=O)(=O)C1 (single isomer, unassigned) [Compound A5a] | 100 | 100 | 100 | 100 | 100 | 100 | 100 | 100 | 100 | 100 | 90 | – | – | – | –
Cc1cc(N2CCC(c3cc(Cl)cc(Cl)c3)(C(F)(F)F)C2)ccc1C(=O)NC1CS(=O)(=O)C1 (single isomer, unassigned) [Compound A5b] | 0 | 100 | 0 | 0 | 0 | 0 | 0 | 100 | 0 | 100 | 0 | – | – | – | –
Cc1cc(N2CCC(c3cc(Cl)cc(Cl)c3)(C(F)(F)F)C2)ccc1C(=O)NCc1ccccn1 (centres unmarked) [Compound 1-4 of WO08128711, reference compound] | – | – | – | – | – | – | – | – | – | – | – | 0 | 0 | 0 | 50
Cc1cc(N2CCC(c3cc(Cl)cc(Cl)c3)(C(F)(F)F)C2)ccc1C(=O)NC1C[S+]([O-])C1 (centres unmarked) [Compound A1] | – | – | – | – | – | – | – | – | – | – | – | 100 | 80 | 100 | –
Cc1cc(N2CCC(c3cc(Cl)cc(Cl)c3)(C(F)(F)F)C2)ccc1C(=O)NC1CSC1 (centres unmarked) [Compound A4] | – | – | – | – | – | – | – | – | – | – | – | 100 | 100 | – | 80
Cc1cc(N2CCC(c3cc(Cl)cc(Cl)c3)(C(F)(F)F)C2)ccc1C(=O)NC1CS(=O)(=O)C1 (centres unmarked) [Compound A5] | – | – | – | – | – | – | – | – | – | – | – | 100 | 100 | – | 80
